In a melting point compilation (Tetko et al.; mined from patent text by program, amines drawn as free bases though some values may be those of a salt) one finds melting point data, which are given here for 64 compounds.

The term melting point denotes the temperature, or range, at which the solid turns liquid. The compound `NC(=O)C(Sc1nc2cc(Cl)ccc2s1)c1ccccc1` (centres undefined) returned a melting point of 181 to 183 °C.
As for `O=C1COc2cc(S(=O)(=O)c3ccccc3)ccc2N1CC1=NCCN1`, the melting point was in the range of 114 to 116 °C.
Then `O=C(O)c1c(Cl)ccc([N+](=O)[O-])c1Cl`, with 133 to 135 °C; and `CC(=O)SCC(=O)C1CCC2C3CCC4CC(O)C(N5CCOC(C)(C)C5)CC4(C)C3C(=O)CC12C` (centres undefined), with 181 to 182 °C.
Compound `COC(=O)C(C)NC(=O)NCCCCC1CCSS1` (centres undefined) came in with a melting point of 72 to 82 °C.
In turn, `COc1ccc(-c2cc3cc(OC)cc(CC(F)(F)F)c3o2)cc1` yielded a melting point of 113 to 115 °C.
For `O=C(NN=Cc1c(O)c(O)cc2ccccc12)c1cc2ccccc2cc1O`, the melting point was greater than 285 °C.
In turn, `Nc1sc2c(c1C(=O)c1ccc(Br)c3ccccc13)CCC2` registered a melting point of 210 to 212 °C.
`CC(C)(C)C(=O)CN1C(=O)C(NC(=O)Nc2cccc(C(=O)NS(C)(=O)=O)c2)CN(c2ccccc2)c2ccccc21` (centres undefined) came in with a melting point of 229 to 233 °C.
With `COc1ccc(-c2csc(NC(=O)C(=O)OCCc3ccccc3)n2)cc1`, the melting point fell in the range of 165 to 167 °C.
`O=C1NC(c2c[nH]c3ccccc23)C(=O)N1CCCN1CCCCC1` (centres undefined) displayed a melting point of 233 to 234 °C.
`Cc1cccc(C)c1-c1cc(C(N)=O)ccc1C(N)=O`: the melting point lay within 246 to 248 °C.
For the compound `CC(C)NC(=O)C1(C(C)C)CCCC1C` (centres undefined), the melting point lay in the range of 90.5 to 91.5 °C.
`CCCS(=O)(=O)Oc1c(C(=O)c2nn(C)c(=O)n(-c3ccccc3)c2=O)cnn1C(C)C` returned a melting point of 51 to 53 °C.
The same measure for `CCCC(=O)NC[C@@H]1C[C@H]1c1cccn2nc(C)cc12` (relative stereo): 82 to 84 °C; for `CCCN(C(=O)CCl)[C@@H]1CCc2cc3c(cc2[C@H]1O)OCC3` (relative stereo): 65 to 70 °C.
`Cc1cc(OCCO)c2ccccc2c1O`: the melting point was in the range of 136 to 137 °C.
With `c1ccc(Cn2cncc2-c2cnc(-c3ccccc3)nc2)cc1`, the melting point stood at 140 °C.
`CC(C)(C)OC(=O)NCCNC(=O)c1cocn1` came in with a melting point of 148 to 150 °C.
On to `Cc1csc(-c2ccc(C3=NNC(=O)CC3)cc2)n1`, for which the melting point lay within 266 to 267 °C.
Regarding `On1c(C(F)(F)F)nc2ncc(Cl)cc21`, the melting point was in the range of 264 to 266 °C.
For `COc1cc(C=O)ccc1OCC(O)CN1CCC(c2noc3cc(F)ccc23)CC1` (centres undefined), the melting point was in the range of 107 to 108 °C.
As for `CCCCCCCCCCCCCCCCCc1nnc2n1-c1sc(CC)cc1C(c1ccc(C)cc1)=NC2`, the melting point was in the range of 78 to 80 °C.
`CCCCOc1ccc2[nH]c3c([N+](=O)[O-])ccc(Cl)c3c(=O)c2c1` showed a melting point of 154 to 155 °C.
As to `CCn1c(=O)c2c(nc(/C=C/c3cccc(OC)c3)n2C)n(CC)c1=O`, the melting point is 153 to 155 °C.
Turning to `COC(=O)c1cc2ccc(OC)cc2c2c1C=CC(c1ccc(OC)cc1)(c1ccc(OC)cc1)O2`, the melting point was in the range of 162 to 164 °C.
Turning to `O=c1ccc2cnc(Nc3ccccn3)nc2n1C1CCCC1`, the melting point is greater than 250 °C.
Then `O=C(Nc1cccnc1)NC(NC(=O)c1ccc(Cl)cc1)C(Cl)(Cl)Cl` (centres undefined), with 166 to 168 °C; and `Cc1cc(I)cc2[nH]c(=O)oc12`, with 248 to 250 °C; and `O=C(Cl)N1CC=C(c2ccccc2)CC1`, with 63 °C.
For the compound `O=C1C2=NCCCN2c2ccc(Br)cc21`, the melting point fell in the range of 166 to 168 °C.
As for `O=c1ccn(C2CC(O)C(COC3(c4ccccc4)c4ccccc4Oc4ccccc43)O2)c(=O)[nH]1` (centres undefined), the melting point was in the range of 157 to 160 °C.
Then `O=C1OCC2C3OC(C4CCCCC43)C12` (centres undefined), with 90 to 91 °C.
Then `NC(CC(=O)O)c1ccc2c(c1)OCCO2` (centres undefined), with 222 to 223 °C.
`COC(=O)c1ccc2c(c1)Sc1ccc(F)cc1C(O)=C2`: the melting point was in the range of 85 to 88 °C.
On to `CCc1cn([C@H]2C[C@H](OC(C)=O)[C@@H](/C=C/C(=O)Cc3c(Cl)cccc3Cl)O2)c(=O)[nH]c1=O`, for which the melting point is 165 °C.
Then `N[C@@H](CSc1ccccc1[N+](=O)[O-])C(=O)O`, with 168 to 171 °C; and `COc1cc2c(c3c1OC(C)(C)C3)C(c1cccc(SCC(N)=O)c1)=NC(C)(C)C2`, with 118 to 120 °C; and `COc1cccc(CCN2C(=O)c3cc(Cl)c(Cl)cc3C2(O)c2ccc(F)cc2)c1` (centres undefined), with 169 °C.
Then `COc1cc2c(=O)c(-c3ccc(O)cc3)coc2cc1O`, with 336 to 338 °C; and `Clc1ccc2nc(NC3CCCCC3)n3nc(-c4ccco4)nc3c2c1`, with 158 to 160 °C.
`O=C(Nc1cc(Cl)cc(Cl)c1)Nc1ccc(Br)cc1-c1nnn[nH]1`: the melting point lay within 263 to 264 °C.
Then `Cc1ccc2c(c1)[C@H]1Cc3ccccc3[C@H]1N2` (relative stereo), with 110 °C.
For `O=C(c1ccccc1)c1cc(-c2ccccc2)c(OS(=O)(=O)c2ccc(C(=O)O)c(O)c2)c(-c2ccccc2)c1`, the melting point was found to be 217 °C.
In turn, `COC(=O)c1ccc([N+](=O)[O-])cc1S(=O)(=O)NC(C)(C)C` came in with a melting point of 122 to 124 °C.
Compound `CC12CC(F)C3c4ccc(O)cc4CC(CCCCCN4CCCC4)C3C1CCC2O` (centres undefined) registered a melting point of 95 to 118 °C.
In turn, `CNC(=O)C1=CC(CF)(CF)Oc2ccc(Br)cc21` returned a melting point of 187 to 188 °C.
The same measure for `CC(C)c1[nH]nc2c1C(=O)c1c(NC(=O)CN3CCC(CN)CC3)cccc1-2`: 218 to 220 °C; for `Cc1nc(C)c2c(n1)CN=C(c1ccccc1)c1cc(Cl)ccc1-2`: 121 to 124 °C; for `CCCCCCCCCCNC1=CC(=O)c2c(OC)ccc(OC)c2C1=O`: 86 to 87 °C.
Compound `Cc1cc(Cl)nnc1NS(=O)(=O)c1cccc2c(N(C)C)cccc12` registered a melting point of 182 to 186 °C.
As to `Cc1cc(NCCNCC(O)COc2ccccc2)n2ncnc2n1` (centres undefined), the melting point lay in the range of 126 to 127 °C.
`CCOC(=O)C(C)(C)Oc1ccc(C(=O)c2ccccc2)cc1` had a melting point of 82 to 85 °C.
Take `Cc1[nH]cnc1/C=C/C(=O)c1c(C)oc2ccccc12`: the melting point lay within 166 to 168 °C.
Then `O=[N+]([O-])c1cc(CBr)cc([N+](=O)[O-])c1`, with 93 to 94 °C.
For the compound `CC(C)COc1ccc(C(=O)O)cc1[N+](=O)[O-]`, the melting point is 184 to 186 °C.
`CCC1Cc2c(N3CCOCC3)c(F)cc3c(=O)c(C(=O)O)cn1c23` (centres undefined) showed a melting point of 275 to 278 °C.
Then `CCOc1cc(OCC)c(C=[N+]([O-])C2CCCCC2)c(OCC)c1`, with 146 °C.
For the compound `O=C1Cc2cc(Oc3ccccc3Cl)ccc2N1`, the melting point lay within 139 to 140 °C.
Consider `COC(=O)C1=C(C)NC(CC(=O)N2CCN(C3CC4CC(=O)CC4C3)CC2)=C(C(=O)OC)C1c1c(Cl)cccc1Cl` (centres undefined), for which the melting point was 145 to 155 °C.
Then `O=C(O)CCC(=NO)c1ccc(-c2ccc(Br)cc2)cc1`, with 175 to 176 °C.
On to `Cn1cc(-c2ccccc2)c(=O)c(-c2ccc3ccccc3c2)c1`, for which the melting point was in the range of 101 to 105 °C.
`CSc1nc(N)nc(Cl)c1-c1ccc(Cl)cc1Cl`: the melting point is 201 to 202 °C.
Compound `CCOC(=O)C1(C(=O)OCC)SCC(N(C)C)CS1` registered a melting point of 38 to 39 °C.
